# Reference: US9132130B2, “Purine derivative and antitumor agent using same” (ZENYAKU KOGYO KABUSHIKI KAISHA, priority 2009, dated 2015)
# What was measured:
# Assay type in all cases: cell-based
# [1] = test system: B16F10 cells (mouse melanoma [malignant melanoma] cells); assay: in vitro antitumor activity test, B16F10 cells, XTT colorimetry; conditions: B16-F10, cultured 72 hours
# Procedure: (§1) WiDr cells (human colon cancer cells) subcultured in a culture medium composed of a MEM medium added with 10% fetal bovine serum, 25 mM HEPES and 0.1 mg/ml kanamycin under the conditions of 37° C. and 5% carbon dioxide gas were made into single floating cells by treating with trypsin/EDTA, and a single cell suspension of 3×10^4 cells per 1 ml was prepared using the MEM medium (added with 10% fetal bovine serum, 25 mM HEPES and 0.1 mg/ml kanamycin). After dissolving the test compounds in DMSO, they were diluted in a RPMI 1640 medium (added with 10% fetal bovine serum, 25 mM HEPES and 0.1 mg/ml kanamycin) and prepared so that the concentrations were 2.0×10^−9 to 2.0×10^−4 M.
# (§2) 0.1 ml of the cell suspension was placed into each well of 96-well microplates, cultured for 24 hours to allow the cells to adhere to the microplates, then 0.1 ml of the sample solutions were added, and cultured for 72 hours at 37° C. in 5% carbon dioxide gas.
# (§3) Afterwards, the level of growth inhibition at various sample concentrations was obtained using XTT colorimetry, and concentrations at which growth was inhibited by 50% (GI50 values [μM]) were calculated.
# (§4) In addition, cells other than WiDr cells that were used, and the condition for preparing each single cell suspension were as follows.
# B16F10 cells (mouse melanoma [malignant melanoma] cells): 1×10^4 cells/ml
# [2] = test system: WiDr cells (human colon cancer cells); assay: in vitro antitumor activity test, WiDr cells, XTT colorimetry; conditions: cultured 72 hours
# Procedure: as §1, §2, §3
# [3] = test system: P388 cells (mouse leukemia cells); assay: in vitro antitumor activity test, P388 cells, XTT colorimetry; conditions: cultured 72 hours
# Procedure: P388 cells (mouse leukemia cells) passaged in the abdominal cavity of DBA/2 mice were extracted with ascitic fluid, and cultured in a RPMI 1640 medium (added with 10% fetal bovine serum, 25 mM HEPES, 0.1 mg/ml kanamycin and 5 μM 2-hydroxyethyldisulfide) at 37° C. in 5% carbon dioxide gas. After culturing for 16 hours, floating P388 cells were made into a single cell suspension of 4×10^4 cells per 1 ml using the same RPMI 1640 medium as given above. The test substances were dissolved in DMSO, then diluted in a RPMI 1640 medium (added with 10% fetal bovine serum, 25 mM HEPES and 0.1 mg/ml kanamycin) and prepared so that the concentrations were 2.0×10^−9 to 2.0×10^−4 M.
# 0.1 ml of the cell suspension was placed into each well of 96-well microplates, then 0.1 ml of the sample solutions were added, and cultured for 72 hours at 37° C. in 5% carbon dioxide gas.
# as §3
# [4] = test system: PC-3 cells (human prostate cancer cells); assay: in vitro antitumor activity test, PC-3 cells, XTT colorimetry; conditions: PC-3 human prostate cancer cells, cultured 72 hours
# Procedure: as §1, §2, §3, §4
# PC-3 cells (human prostate cancer cells): 2×10^4 cells/ml
# [5] = test system: A549 cells (human lung cancer cells); assay: in vitro antitumor activity test, A549 cells, XTT colorimetry; conditions: cultured 72 hours
# Procedure: as §1, §2, §3, §4
# A549 cells (human lung cancer cells): 2×10^4 cells/ml
GI50 [1],GI50 [2],GI50 [3],GI50 [4],GI50 [5],SMILES
630 nM,280 nM,250 nM,540 nM,400 nM,"COc1ccc(CSc2nc(N3CC=CC3)c3ncn(C)c3n2)cc1 [Compound 130, 2-(4-methoxybenzylsulfanyl)-9-methyl-6-(3-pyrrolin-1-yl)-9H-purine]"
120 nM,80 nM,70 nM,120 nM,140 nM,"CCN(C)c1nc(SCc2ccc(OC)c(C#N)c2)nc2c1ncn2C [Compound 85, 2-(3-cyano-4-methoxybenzylsulfanyl)-6-(N-ethyl-N-methylamino)-9-methyl-9H-purine]"
1000 nM,1300 nM,610 nM,870 nM,1400 nM,"CCc1nc2c(N(C)C)nc(SCc3ccc(OC)c(NC(C)=O)c3)nc2n1C [Compound 60, 2-(3-acetylamino-4-methoxybenzylsulfanyl)-6-dimethylamino-8-ethyl-9-methyl-9H-purine]"
250 nM,1510 nM,90 nM,380 nM,160 nM,"C/C=C/c1nc(SCc2ccc(OC)c(N)c2)nc2c1ncn2C [Compound 173, 2-(3-amino-4-methoxybenzylsulfanyl)-9-methyl-6-(1-trans-propenyl)-9H-purine]"
4630 nM,6110 nM,3290 nM,150 nM,3900 nM,"CCc1nc2c(N3CCOCC3)nc(SC(c3ccccc3)c3ccccc3)nc2n1C [Compound 100, 2-benzhydrylsulfanyl-8-ethyl-9-methyl-6-morpholino-9H-purine]"
1490 nM,1040 nM,670 nM,400 nM,1160 nM,"CCc1nc2c(N3CCOCC3)nc(SCc3ccc(C)c(F)c3)nc2n1C [Compound 11, 8-ethyl-2-(3-fluoro-4-methylbenzylsulfanyl)-9-methyl-6-morpholino-9H-purine]"
1100 nM,1370 nM,520 nM,1730 nM,720 nM,"CCc1ccc(CSc2nc(N3CCOCC3)c3nc(CC)n(C)c3n2)cc1N [Compound 90, 2-(3-amino-4-ethylbenzylsulfanyl)-8-ethyl-9-methyl-6-morpholino-9H-purine]"
110 nM,80 nM,80 nM,50 nM,100 nM,"CCc1nc2c(N(C)C)nc(SCc3ccc(OC)c(F)c3)nc2n1C [Compound 71, 6-dimethylamino-8-ethyl-2-(3-fluoro-4-methoxybenzylsulfanyl)-9-methyl-9H-purine]"
440 nM,210 nM,200 nM,260 nM,320 nM,"CCc1nc2c(N(C)C)nc(SCc3ccc(OC)cc3)nc2n1C [Compound 24, 6-dimethylamino-8-ethyl-2-(4-methoxybenzylsulfanyl)-9-methyl-9H-purine]"
> 10000 nM,> 10000 nM,> 10000 nM,> 10000 nM,> 10000 nM,"COc1ccc(CNc2nc(N3CCOCC3)c3ncn(C)c3n2)cc1 [Compound B, reference compound]"
22600 nM,70000 nM,22500 nM,> 100000 nM,> 100000 nM,"Sc1ncnc2nc[nH]c12 [Compound A, 6-mercaptopurine, reference compound]"
340 nM,80 nM,70 nM,110 nM,110 nM,"CNc1nc(SCc2ccc(OC)cc2)nc2c1ncn2C [Compound 26, 2-(4-methoxybenzylsulfanyl)-9-methyl-6-methylamino-9H-purine]"
500 nM,440 nM,230 nM,130 nM,250 nM,"CCc1nc2c(N(C)C)nc(SCc3ccc(OC)c(N)c3)nc2n1C [Compound 23, 2-(3-amino-4-methoxybenzylsulfanyl)-6-dimethylamino-8-ethyl-9-methyl-9H-purine]"
370 nM,170 nM,90 nM,220 nM,100 nM,"CCn1cnc2c(N3C=COCC3)nc(SCc3ccc(OC)c(F)c3)nc21 [Compound 154, 6-(2,3-dihydro-[1,4]oxadin-4-yl)-9-ethyl-2-(3-fluoro-4-methoxybenzylsulfanyl)-9H-purine]"
1420 nM,920 nM,720 nM,830 nM,830 nM,"CCn1c(C)nc2c(N3CCOCC3)nc(SCc3ccc(OC)cc3)nc21 [Compound 102, 9-ethyl-2-(4-methoxybenzylsulfanyl)-8-methyl-6-morpholino-9H-purine]"
1200 nM,1100 nM,910 nM,360 nM,1100 nM,"CCc1nc2c(N3CCOCC3)nc(SCc3ccc(OC)c(Br)c3)nc2n1C [Compound 78, 2-(3-bromo-4-methoxybenzylsulfanyl)-8-ethyl-9-methyl-6-morpholino-9H-purine]"
1160 nM,940 nM,720 nM,600 nM,870 nM,"CCCn1c(CC)nc2c(N3CCOCC3)nc(SCc3ccc(OC)cc3)nc21 [Compound 6, 8-ethyl-2-(4-methoxybenzylsulfanyl)-6-morpholino-9-propyl-9H-purine]"
290 nM,130 nM,90 nM,130 nM,240 nM,"CCc1nc2c(N3C=COCC3)nc(SCc3ccc(OC)cc3)nc2n1C [Compound 148, 6-(2,3-dihydro-[1,4]oxadin-4-yl)-8-ethyl-2-(4-methoxybenzylsulfanyl)-9-methyl-9H-purine]"
140 nM,90 nM,90 nM,340 nM,140 nM,"CCNc1nc(SCc2ccc(OC)c(F)c2)nc2c1ncn2C [Compound 91, 6-ethylamino-2-(3-fluoro-4-methoxybenzylsulfanyl)-9-methyl-9H-purine]"
> 10000 nM,> 10000 nM,> 10000 nM,> 10000 nM,> 10000 nM,"CN(C)c1nc(SCc2ccccc2)nc2[nH]cnc12 [Compound C, reference compound]"
420 nM,350 nM,240 nM,310 nM,410 nM,"CCc1nc2c(N3C=COCC3)nc(SCc3ccc(OC)cc3)nc2n1CC [Compound 158, 8,9-diethyl-6-(2,3-dihydro-[1,4]oxadin-4-yl)-2-(4-methoxybenzylsulfanyl)-9H-purine]"
510 nM,360 nM,320 nM,580 nM,570 nM,"COc1ccc(CSc2nc(-n3cccc3)c3ncn(C)c3n2)cc1 [Compound 109, 9-methyl-2-(4-methoxybenzylsulfanyl)-6-(1-pyrrolyl)-9H-purine]"
160 nM,360 nM,50 nM,110 nM,90 nM,"CCOc1ccc(CSc2nc(N(C)C)c3ncn(C)c3n2)cc1N [Compound 140, 2-(3-amino-4-ethoxybenzylsulfanyl)-6-dimethylamino-9-methyl-9H-purine]"
